Values quoted from earlier work, collected in patent US5208032A, “Increasing the growth of turkeys using implant of 19-nortestosterone” (Rutgers, The State University of New Jersey, priority 1992, dated 1993).

Tests used:
testosterone antiserum = details: manufacturer statement; cited from earlier work
5-alpha-DHT anti-serum = details: antibody provided by Dr. Alan L. Johnson; cited from earlier work
[1] = mice, Innovative Research pellets, 21 days; cited from earlier work

## C[C@]12CCC(=O)C=C1CC[C@@H]1[C@@H]2CC[C@]2(C)C(=O)CC[C@@H]12 [4-adrosten-3,17-dione]
Testosterone antiserum
  cross-reaction with Immuchem testosterone antiserum: 0.56%
5-alpha-DHT anti-serum
  reaction with 5-alpha-DHT anti-serum (Ford's-F/1): 11.4%

## C[C@]12CC[C@@H](O)C[C@@H]1CC[C@@H]1[C@@H]2CC[C@]2(C)[C@@H](O)CC[C@@H]12 [5-alpha-androstane-3-alpha,17-beta-diol]
Testosterone antiserum
  cross-reaction with Immuchem testosterone antiserum: less than 0.01%

## C[C@]12CC[C@@H]3c4ccc(O)cc4CC[C@H]3[C@@H]1CC[C@@H]2O [17 beta-estradiol]
[1]
  maintained blood levels: 20 to 30 ng/mL
